1 compound from publication PMC7745731 (ACS infectious diseases, 2020) can be followed below.

The structures appear in SMILES notation.

In this test the target is FadD17 (Rv3506) (Mycobacterium tuberculosis, UniProt O53551).
FadD17 (Rv3506), sequence (O53551 whole entry): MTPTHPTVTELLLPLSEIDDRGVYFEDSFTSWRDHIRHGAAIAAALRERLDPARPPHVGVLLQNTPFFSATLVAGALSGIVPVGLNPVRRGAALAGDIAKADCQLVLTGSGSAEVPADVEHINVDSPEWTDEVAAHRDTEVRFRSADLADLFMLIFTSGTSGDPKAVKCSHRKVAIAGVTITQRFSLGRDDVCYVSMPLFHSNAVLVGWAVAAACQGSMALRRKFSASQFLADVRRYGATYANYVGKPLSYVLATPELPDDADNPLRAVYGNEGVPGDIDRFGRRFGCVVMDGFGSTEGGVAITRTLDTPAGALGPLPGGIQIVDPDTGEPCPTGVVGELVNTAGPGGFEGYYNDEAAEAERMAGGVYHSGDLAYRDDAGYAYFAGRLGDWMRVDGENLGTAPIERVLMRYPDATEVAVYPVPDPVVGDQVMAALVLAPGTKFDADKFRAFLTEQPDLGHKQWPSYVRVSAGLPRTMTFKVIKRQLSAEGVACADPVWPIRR

In the case of `C[C@H](/C=C/C(=O)O)[C@H]1CC[C@H]2[C@@H]3CCC4=CC(=O)CC[C@]4(C)[C@H]3CC[C@]12C` [3-OCDO-acid], the “preparative CoA ligation, HPLC” value is 3-OCDO-CoA was then synthesized enzymatically from the 3-OCDO-acid using the steroid-CoA ligase FadD17.
